Source: PubChem BioAssay (NCI)
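48-hour exposure; five concentrations; linearly interpolated endpoints. At the TGI there is no net growth.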

Experiments:
Test in all cases: NCI tumour cell line growth inhibition, 48 h
[1] = system: HT29 colon
[2] = system: NCI-H226 lung
[3] = system: SK-OV-3 ovarian
[4] = system: BT-549 breast
[5] = system: MCF7 breast
[6] = system: HL-60(TB) leukemia
[7] = system: ACHN renal
[8] = system: SF-539 CNS
[9] = system: SN12C renal
[10] = system: NCI/ADR-RES ovarian
[11] = system: OVCAR-8 ovarian
[12] = system: A498 renal
[13] = system: RPMI-8226 leukemia
[14] = system: TK-10 renal
[15] = system: SNB-19 CNS
[16] = system: EKVX NSCLC
[17] = system: NCI-H460 lung
[18] = system: SR leukemia
[19] = system: IGROV1 ovarian
[20] = system: SF-268 CNS
[21] = system: M14 melanoma
[22] = system: OVCAR-3 ovarian
[23] = system: SW-620 colon
[24] = system: U251 CNS
[25] = system: PC-3 prostate
[26] = system: SK-MEL-28 melanoma
[27] = system: UO-31 renal
[28] = system: SNB-75 CNS
[29] = system: UACC-62 melanoma
[30] = system: 786-0 renal
[31] = system: HS 578T breast
[32] = system: NCI-H23 lung
[33] = system: OVCAR-5 ovarian
[34] = system: MOLT-4 leukemia
[35] = system: HCC-2998 colon
[36] = system: LOX IMVI melanoma
[37] = system: K-562 leukemia
[38] = system: HCT-15 colon
[39] = system: SK-MEL-5 melanoma
[40] = system: CAKI-1 renal
[41] = system: OVCAR-4 ovarian
[42] = system: CCRF-CEM leukemia
[43] = system: A549 NSCLC
[44] = system: COLO 205 colon
[45] = system: HOP-62 NSCLC
[46] = system: UACC-257 melanoma
[47] = system: HCT-116 colon
[48] = system: NCI-H522 lung
[49] = system: HOP-92 NSCLC
[50] = system: RXF 393 renal
[51] = system: DU-145 prostate
[52] = system: MDA-MB-231 breast
[53] = system: MALME-3M melanoma
[54] = system: SF-295 CNS
[55] = system: SK-MEL-2 melanoma
[56] = system: KM12 colon
[57] = system: MDA-MB-435

O=C(NCCN1CCOCC1)c1ccc(I)cc1 gave a TGI [1] of over 100 µM, a TGI [2] of over 100 µM and a TGI [3] of over 100 µM. For the same compound, the TGI [4] was over 100 µM, the TGI [5] was over 100 µM and the TGI [6] was over 100 µM. The TGI [7] was over 100 µM, the TGI [8] was over 100 µM and the TGI [9] was over 100 µM. The TGI [10] was over 100 µM, the TGI [11] was over 100 µM and the TGI [12] was over 100 µM. The TGI [13] was over 100 µM, the TGI [14] was over 100 µM and the TGI [15] was over 100 µM. The TGI [16] was over 100 µM, the TGI [17] was over 100 µM and the TGI [18] was over 100 µM. For the same compound, the TGI [19] was over 100 µM, the TGI [20] was over 100 µM and the TGI [21] was over 100 µM. For the same compound, the TGI [22] was over 100 µM, the TGI [23] was over 100 µM and the TGI [24] was over 100 µM. For the same compound, the TGI [25] was over 100 µM, the TGI [26] was over 100 µM and the TGI [27] was over 100 µM. The TGI [28] was over 100 µM, the TGI [29] was over 100 µM and the TGI [30] was over 100 µM. It also gave a TGI [31] of over 100 µM, a TGI [32] of over 100 µM and a TGI [33] of over 100 µM. For the same compound, the TGI [34] was over 100 µM, the TGI [35] was over 100 µM and the TGI [36] was over 100 µM. For the same compound, the TGI [37] was over 100 µM, the TGI [38] was over 100 µM and the TGI [39] was over 100 µM. It also gave a TGI [40] of over 100 µM, a TGI [41] of over 100 µM and a TGI [42] of over 100 µM. For the same compound, the TGI [43] was over 100 µM.
For O=C(CBr)c1ccc2cc(Br)c3ccccc3c2c1, the TGI [1] was over 100 µM, the TGI [44] was over 100000 nM and the TGI [2] was 33.6 µM. For the same compound, the TGI [45] was over 100 µM, the TGI [4] was 34 µM and the TGI [5] was 73.8 µM. The TGI [6] was 69.6 µM, the TGI [7] was over 100 µM and the TGI [8] was 41.7 µM. For the same compound, the TGI [10] was over 100 µM, the TGI [11] was 55.8 µM and the TGI [13] was over 100 µM. It also gave a TGI [46] of 49.9 µM, a TGI [14] of 36.9 µM and a TGI [15] of 64.6 µM. For the same compound, the TGI [47] was over 100 µM, the TGI [16] was 54.5 µM and the TGI [17] was 54.4 µM. For the same compound, the TGI [18] was 46.3 µM, the TGI [19] was 62.4 µM and the TGI [20] was 47 µM. It also gave a TGI [21] of 84 µM, a TGI [22] of 46.9 µM and a TGI [48] of 37.6 µM. The TGI [23] was 74.4 µM, the TGI [49] was 45.7 µM and the TGI [24] was over 100 µM. It also gave a TGI [25] of 53.1 µM, a TGI [26] of 57.5 µM and a TGI [50] of 38.7 µM. For the same compound, the TGI [51] was 46.4 µM, the TGI [27] was 62.7 µM and the TGI [52] was 51.2 µM. The TGI [28] was 72.8 µM, the TGI [29] was 29.8 µM and the TGI [30] was over 100 µM. For the same compound, the TGI [31] was 59.6 µM, the TGI [32] was 35.3 µM and the TGI [53] was 34.4 µM. It also gave a TGI [33] of 57.9 µM, a TGI [34] of 37 µM and a TGI [35] of over 100 µM. The TGI [36] was over 100 µM, the TGI [54] was 56.7 µM and the TGI [37] was 77.6 µM. For the same compound, the TGI [55] was 45.1 µM, the TGI [38] was over 100 µM and the TGI [39] was 30.2 µM. The TGI [40] was 38 µM, the TGI [41] was 58.9 µM and the TGI [42] was over 100 µM. The TGI [56] was 44.1 µM, the TGI [43] was 76.7 µM and the TGI [57] was 42.6 µM.
With Cc1cn2c(/C=N/N=C(N)N)c(-c3ccc(Cl)c([N+](=O)[O-])c3)nc2s1 the TGI [1] was 2.72 µM, the TGI [44] was 1880 nM and the TGI [3] was 3.15 µM. For the same compound, the TGI [8] was 3.11 µM, the TGI [10] was over 100 µM and the TGI [11] was over 100 µM. The TGI [46] was over 100 µM, the TGI [16] was 2.1 µM and the TGI [23] was over 100 µM. The TGI [26] was 3.05 µM, the TGI [27] was 3.4 µM and the TGI [28] was 2.37 µM. It also gave a TGI [31] of over 100 µM, a TGI [33] of 2.41 µM and a TGI [55] of 1.6 µM. The TGI [40] was over 100 µM.
